Seven compounds from patent US11325921B2, “Optically active crosslinked cyclic secondary amine derivative” (Sumitomo Dainippon Pharma Co., Ltd., priority 2018, dated 2022) can be followed below.

pIC50: −log10 of the molar value. Like-named read-outs stand apart in the source and are kept apart here.

One may read the pIC50 as the negative decadic logarithm of the IC50, by convention in mol/L.

For series [1], the system named is HOXA9 mRNA in MV4; 11 cells. Put plainly: Test 3: inhibition of mRNA transcription, HOXA9. The class given is cell-based. Conditions: 20 to 24 hours, fitted with GAPDH; for mrna remaining at 1 µM: Homo sapiens, read-out: mRNA at 1 μM (% control) HOXA9. The method, then: (§1) MV4; 11 cells were obtained from American Type Culture Collection (ATCC). The cells were cultured at 37° C. in the presence of 5% CO2 in RPMI 1640 medium containing 10% fetal bovine serum and 1% penicillin/streptomycin. To the MV4; 11 cells was added each test compound to adjust the final concentration to 1 μmol/L, and the cells were cultured at 37° C. in the presence of 5% CO2 for 20 to 24 hours. After the incubation, the total RNA was extracted from the cells with RNeasy™ Mini Kit (QIAGEN, 74106), and cDNA was synthesized with Superscript™ VILO™ cDNA Synthesis Kit (Invitrogen, #11754250). By using TaqMan™ Gene Expression Master Mix (Applied Biosystems, 4369016) and TaqMan™ probe (Applied Biosystems), the expression level of mRNA was quantified from the obtained cDNA with 7900HT (Applied biosystems). The mRNA expression level of each obtained gene was fitted with the expression level of mRNA of GAPDH.

The subject of series [2] is RS4; 11 cells. Briefly: Test 2: inhibition of cell proliferation, RS4; 11. The class given is cell-based. Conditions: for cell proliferation inhibition activity (in words, good) / cell proliferation inhibitory activity (in words, potent): 11 and MOLM-13 cells, summary of the table; for cell proliferation inhibitory activity (in words, potent): 'especially'; for pIC50: 11 cells, cultured 7 days, PrestoBlue. The method, then: (§2) RS4; 11 cells were obtained from American Type Culture Collection (ATCC). The cells were cultured at 37° C. in the presence of 5% CO2 in RPMI 1640 medium containing 10% fetal bovine serum and 1% penicillin/streptomycin. MOLM-13 cells were separately obtained from DSMZ. The cells were cultured at 37° C. in the presence of 5% CO2 in RPMI 1640 medium containing 20% fetal bovine serum and 1% penicillin/streptomycin.
(§3) The cells were plated to a 96-well plate in 2000 cells/well, each test compound was added thereto to adjust the final concentration of DMSO to 0.1% of DMSO, and the cells were cultured for 7 days. After the cultivation, the cell viability was calculated with PrestoBlue™ Cell Viability Reagent (Invitrogen, A13261). The IC50 value was calculated from a survival curve, that corresponds to the concentration of the test compound at which the cell proliferation inhibition rate is 50%.

Series [3] concerns the target Menin-MLL binding (His-Menin1-615 / MLL1-172-FLAG) (Homo sapiens (Human), UniProt O00255). Put plainly: Test 1: inhibition of the Menin-MLL binding (HTRF). To be noted: for Menin-MLL binding inhibition activity (in words): summary of the table. On the procedure: Menin1-615 wherein 6× His tag and HA tag are inserted in the N-terminus, and myc tag is inserted in the C-terminus (hereinafter, referred to as His-Menin1-615), was diluted with an assay buffer (25 mmol/L HEPES, 150 mmol/L NaCl, 1 mmol/L dithiothreitol, 0.5% (w/v) Tween 80, 0.3% (w/v) BSA, 0.3% (w/v) skim milk) to adjust the final concentration Lo 30 nmol/L. The test compounds were also diluted with the assay buffer to adjust each concentration of the test compounds to 0.005 to 5 μmol/L. The prepared His-Menin1-615 and test compounds were added to a light-shielding 384-well low-volume plate (Corning, #4514) in 2 μL/well and 6 μL/well, respectively, and the plate was covered with a lid for light-shielding (Corning, r-3935), and incubated at room temperature for 3 hours. After the incubation, MLL1-172 wherein FLAG tag is inserted in the C-terminus (MLL1-172-FLAG), was separately diluted with the assay buffer to adjust the final concentration to 50 nmol/L. The prepared MLL1-172-FLAG was added to the above plate in 2 μL/well, and the plate was covered with a lid for light-shielding and incubated at room temperature for an hour.
Then, anti-6HIS-d2 antibody (cisbio, 61HISDLA) and anti-FLAGM2-K antibody (cisbio, 61FG2KLA) were diluted with an antibody dilution buffer (50 mmol/L Tris, 150 mmol/L NaCl, 800 mmol/L KF, pH 7.4) to adjust the final concentration to 1.4 μg/mL to prepare an antibody mixture. The prepared antibody mixture was added to the above plate in 10 μL/well, and the plate was covered with a lid and incubated at 4° C. for 17 to 24 hours. After the incubation, the signal was detected with RUBYstar (BMG LABTECH). The binding inhibition rate (%) at each concentration of the test compounds was calculated from the following formula, and the IC50 value was obtained, that corresponds to the concentration of the test compound at which the binding inhibition rate is 50%.

The subject of series [4] is MEIS1 mRNA in MV4; 11 cells. Briefly: Test 3: inhibition of mRNA transcription, MEIS1. The series is classed as cell-based. To be noted: for mRNA transcription inhibition activity (in words): MEIS1 and HOXA9, MV4, 1 μM, summary of the table; for mrna remaining at 1 µM: Homo sapiens, read-out: mRNA at 1 μM (% control) MEIS1. On the procedure: as §1
Series [5] can be described thus: Test 4: pharmacokinetic study. The series is classed as in vivo. Conditions: male SD rat, oral, 10 mg/kg; for AUC(0-t): plasma, 24 hours. On the procedure: The test compound suspended in 0.5% methylcellulose was orally administered to 7-week-old male SD rat in a dose of 10 mg/kg. The blood sample was taken from jugular vein without anesthesia over time for 24 hours. The blood sample was centrifuged to obtain plasma. The plasma was pre-treated by methanol extraction method, and then analyzed with an LC-MS/MS to determine the concentration of the test compound. Based on the data from 0 hour after the administration until the time (t) when there was the final detection in the plasma, AUC was calculated by trapezoidal method.

Series [6] has as its system MOLM-13 cells. Briefly: Test 2: inhibition of cell proliferation, MOLM-13. The series is classed as cell-based. Conditions: cultured 7 days, PrestoBlue. The method, then:
as §2, §3

Where [7] appears, read: MV4, 20 to 24 hours, fitted with GAPDH.

Menin-MLL binding (His-Menin1-615 / MLL1-172-FLAG), sequence (O00255 other isoform, or with tags, fused parts or gaps): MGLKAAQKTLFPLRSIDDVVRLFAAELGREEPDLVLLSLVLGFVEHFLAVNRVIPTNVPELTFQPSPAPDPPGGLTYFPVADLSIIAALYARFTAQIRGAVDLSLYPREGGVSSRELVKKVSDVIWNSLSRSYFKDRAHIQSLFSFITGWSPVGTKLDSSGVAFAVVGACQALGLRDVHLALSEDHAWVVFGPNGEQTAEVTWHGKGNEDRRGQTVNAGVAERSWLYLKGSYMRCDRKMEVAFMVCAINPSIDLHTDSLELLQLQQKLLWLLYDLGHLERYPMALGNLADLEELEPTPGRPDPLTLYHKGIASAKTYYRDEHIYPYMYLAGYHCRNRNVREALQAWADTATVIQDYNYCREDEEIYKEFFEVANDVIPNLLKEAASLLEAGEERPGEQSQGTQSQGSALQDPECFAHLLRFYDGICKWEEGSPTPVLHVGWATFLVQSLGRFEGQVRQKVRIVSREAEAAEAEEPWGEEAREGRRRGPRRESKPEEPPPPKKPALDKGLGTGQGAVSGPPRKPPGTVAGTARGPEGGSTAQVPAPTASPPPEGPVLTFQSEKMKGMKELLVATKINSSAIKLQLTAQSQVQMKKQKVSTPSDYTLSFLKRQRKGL

For the compound “4-{6-[(1S,3S,4S,5S)-5-fluoro-2-azabicyclo[2.2.2]octane-3-carbonyl]-2,6-diazaspiro[3.3]heptan-2-y}-2-(2,2,2-trifluoroethyl)thieno[2,3-b]pyridine-5-carbonitrile [Example 22]”, the “mRNA at 1 μM (% control) HOXA9” value in series [1] is 37.0 % control. In series [2], the “cell proliferation inhibition activity (in words, good)” value (“cell proliferation inhibition activity” below) is given as “good”; the “cell proliferation inhibitory activity (in words, potent)” value (from here on “cell proliferation inhibitory activity”) was “potent”; the pIC50 is 7.00. Moreover, in series [3], the negative logarithm of the IC50 (pIC50) is 8.21 and the “Menin-MLL binding inhibition activity (in words)” value is listed as “potent”. In addition, the “mRNA transcription inhibition activity (in words)” value in series [4] was “showed the mRNA transcription inhibition activity”. Moreover, in series [4] (setting [7]), the “mRNA at 1 μM (% control) MEIS1” value was 18.1 % control. For the same compound, the AUC(0-t) in series [5] came to 0.244 µg·h/mL. In series [6], this compound had a negative-log IC50 (pIC50) of 7.05.

Regarding `O=C([C@H]1N[C@H]2CC[C@@H]1[C@@H](F)C2)N1CC2(C1)CN(c1c(C(F)(F)F)cnc3sc(CC(F)(F)F)cc13)C2` [Example 1, {(1S,3S,4S,5S)-5-Fluoro-2-azabicyclo[2.2.2]octan-3-yl}{6-[2-(2,2,2-trifluoroethyl)-5-(trifluoromethyl)thieno[2,3-b]pyridin-4-yl]-2,6-diazaspiro[3.3]heptan-2-yl}methanone], the mrna remaining at 1 µM is 43.3% in series [1] and 18% in series [4] (setting [7]). Further, in series [2], the “cell proliferation inhibition activity” value is listed as “good”. Besides, the “cell proliferation inhibitory activity” value in series [2] is recorded as “potent”. The pIC50 in series [2] (Homo sapiens, 168 h) is 7.05; in series [3], 7.88; in series [6] (Homo sapiens, 168 h) it was 7.10. In addition, the “Menin-MLL binding inhibition activity (in words)” value in series [3] was “potent”. Besides, in series [4], the “mRNA transcription inhibition activity (in words)” value is “showed the mRNA transcription inhibition activity”. Further, the AUC(0-t) in series [5] (read-out: AUC0-t) amounted to 2.41 µg·h/mL. In addition, the “compound-exposure in plasma (in words)” value in series [5] (summary of the table) is “good compound-exposure in plasma”.

Turning to `O=C([C@H]1N[C@H]2CC[C@@H]1C[C@@H]2OCc1ccccc1)N1CC2(C1)CN(c1c(C(F)(F)F)cnc3sc(CC(F)(F)F)cc13)C2` [Example 13, [(1S,3S,4R,6S)-6-(benzyloxy)-2-azabicyclo[2.2.2]octan-3-yl]{6-[2-(2,2,2-trifluoroethyl)-5-(trifluoromethyl)thieno[2,3-b]pyridin-4-yl]-2,6-diazaspiro[3.3]heptan-2-yl}methanone], the values for the mrna remaining at 1 µM in series [1] and in series [4] (setting [7]) were 63% and 57.3%, respectively. In addition, the pIC50 was 6.21 in series [2] (Homo sapiens, 168 h); 6.87 in series [3]; 6.09 in series [6] (Homo sapiens, 168 h).

Consider `N#Cc1cnc2sc(CC(F)(F)F)cc2c1N1CC2(CN(C(=O)[C@H]3NC4CCC3CC4)C2)C1` [Example 20, 4-{6-[(3S)-2-azabicyclo[2.2.2]octane-3-carbonyl]-2,6-diazaspiro[3.3]heptan-2-yl}-2-(2,2,2-trifluoroethyl)thieno[2,3-b]pyridine-5-carbonitrile], for which the mrna remaining at 1 µM amounted to 59.3% in series [1] and 41.8% in series [4] (setting [7]). Moreover, in series [2], the “cell proliferation inhibition activity” value was “good”. The “cell proliferation inhibitory activity” value in series [2] is listed as “potent”. The pIC50 is 6.57 in series [2] (Homo sapiens, 168 h); 7.94 in series [3]; 6.66 in series [6] (Homo sapiens, 168 h). Moreover, the “Menin-MLL binding inhibition activity (in words)” value in series [3] is “potent”. In addition, the “mRNA transcription inhibition activity (in words)” value in series [4] is reported as “showed the mRNA transcription inhibition activity”.

On to `N#Cc1cnc2sc(CC(F)(F)F)cc2c1N1CC2(CN(C(=O)[C@H]3N[C@@H]4CC[C@H]3C4)C2)C1` [Example 21, 4-{6-[(1R,3S,4S)-2-azabicyclo[2.2.1]heptane-3-carbonyl]-2,6-diazaspiro[3.3]heptan-2-yl}-2-(2,2,2-trifluoroethyl)thieno[2,3-b]pyridine-5-carbonitrile], for which the mrna remaining at 1 µM worked out at 52.1% in series [1] and 40.9% in series [4] (setting [7]). Besides, the “cell proliferation inhibition activity” value in series [2] was “good”. Further, in series [2], the “cell proliferation inhibitory activity” value is “potent”. Also, the negative logarithm of the IC50 (pIC50) in series [2] (Homo sapiens, 168 h) was 6.57; in series [3], 8.08; in series [6] (Homo sapiens, 168 h) it was 6.62. For the same compound, the “Menin-MLL binding inhibition activity (in words)” value in series [3] was “potent”. Further, the “mRNA transcription inhibition activity (in words)” value in series [4] is given as “showed the mRNA transcription inhibition activity”.

On to `O=C([C@H]1NC2CCC1CC2)N1CC2(C1)CN(c1c(C(F)F)cnc3sc(CC(F)(F)F)cc13)C2` [Example 26, [(3S)-2-azabicyclo[2.2.2]octan-3-yl]{6-[5-(difluoromethyl)-2-(2,2,2-trifluoroethyl)thieno[2,3-b]pyridin-4-yl]-2,6-diazaspiro[3.3]heptan-2-yl}methanone], for which the mrna remaining at 1 µM in series [1] was determined as 57.6%; in series [4] (setting [7]) it was 41.4%. In series [2], the “cell proliferation inhibition activity” value is reported as “good”. For the same compound, the negative logarithm of the IC50 (pIC50) in series [2] (Homo sapiens, 168 h) is 6.54; in series [3] it was 7.35; in series [6] (Homo sapiens, 168 h), 6.17. The “Menin-MLL binding inhibition activity (in words)” value in series [3] is reported as “potent”. The “mRNA transcription inhibition activity (in words)” value in series [4] is reported as “showed the mRNA transcription inhibition activity”.

On to `O=C([C@H]1N[C@@H]2CC[C@H]1C2)N1CC2(C1)CN(c1c(C(F)F)cnc3sc(CC(F)(F)F)cc13)C2` [Example 27, [(1R,3S,4S)-2-azabicyclo[2.2.1]heptan-3-yl]{6-[5-(difluoromethyl)-2-(2,2,2-trifluoroethyl)thieno[2,3-b]pyridin-4-yl]-2,6-diazaspiro[3.3]heptan-2-yl}methanone], for which the results for the mrna remaining at 1 µM in series [1] and in series [4] (setting [7]) were 53.5% and 48.9%, respectively. In addition, the “cell proliferation inhibition activity” value in series [2] was “good”. Also, the negative-log IC50 (pIC50) in series [2] (Homo sapiens, 168 h) was 6.25; in series [3], 7.59; in series [6] (Homo sapiens, 168 h) it was 6.03. Also, the “Menin-MLL binding inhibition activity (in words)” value in series [3] is on record as “potent”. Moreover, the “mRNA transcription inhibition activity (in words)” value in series [4] was “showed the mRNA transcription inhibition activity”.
